Experimental data: patent US20250313533A1, “QUINOLINE CARBOXYLIC ACID ESTER COMPOUND AND PREPARATION METHOD AND USE THEREOF” (priority 2019, published 2025)

Experiments:
[1] = tested on: pathogenic bacteria causing black rot in Chinese cabbages; experiment: In vitro bactericidal activity, black rot in Chinese cabbages; format: cell-based, xanthomonas; conditions: Xanthomonas, read-out: inhibitory rate; for inhibition at 1 ppm: dosage 1 ppm; for inhibition at 5 ppm: dosage 5 ppm
[2] = tested on: pathogenic bacteria causing fire blight in pears; experiment: In vitro bactericidal activity, fire blight in pears; format: cell-based, erwinia; conditions: Erwinia, read-out: inhibitory rate; for inhibition at 1 ppm: dosage 1 ppm; for inhibition at 5 ppm: dosage 5 ppm
[3] = tested on: pathogenic bacteria causing fruit blotch in watermelons; experiment: In vitro bactericidal activity, fruit blotch in watermelons; format: cell-based, acidovorax; conditions: read-out: inhibitory rate; for inhibition at 1 ppm: dosage 1 ppm; for inhibition at 5 ppm: dosage 5 ppm
[4] = tested on: pathogenic bacteria causing bacterial wilt in cassava; experiment: organism not typed; format: cell-based; conditions: read-out: inhibitory rate
[5] = tested on: black shank in potatoes; experiment: Living crops in vivo protective activity, potatoes (root irrigation); conditions: Solanum tuberosum, read-out: efficacy against black shank in potatoes; for pest or weed control at 5 ppm: dosage 5 ppm; for pest or weed control at 10 ppm: dosage 10 ppm
Procedure: Root irrigation was carried out on the potatoes for tests according to the designed concentration of the agents. The dosage for each plant was 200 mL and was kept consistent (also for the control). The black shank bacteria were inoculated on the second day after the application. The results were investigated according to the disease condition.

[6] = tested on: bacterial blight in rice; experiment: whole plant or invertebrate; conditions: Oryza sativa, read-out: efficacy against bacterial blight in rice
[7] = tested on: indoor potted cucumber seedlings; experiment: Effect of improving growth and development of crops; format: in vivo; design: Rate of growth rate increase (%): concentration or dose not given beside the values; conditions: versus blank control; for Rate of chlorophyll content increase (%) / Rate of leaf area increase (%): 14 days after application; for Rate of growth rate increase (%): plant height 14 days after application; for Rate of leaf area increase (%): second leaf
In short: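 Readouts: rate of increase in height growth, leaf area and SPAD chlorophyll content. Measurements were made before compound application and again 14 days afterwards, with leaf area computed from second-leaf dimensions.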

[8] = tested on: pathogenic bacteria causing bacterial blight in rice; experiment: whole plant or invertebrate; format: cell-based, xanthomonas; conditions: read-out: inhibitory rate
[9] = tested on: pathogenic bacteria causing bacterial wilt in tobacco; experiment: whole plant or invertebrate; format: cell-based, ralstonia; conditions: read-out: inhibitory rate
[10] = tested on: fruit blotch in watermelons; experiment: whole plant or invertebrate; conditions: read-out: efficacy against fruit blotch in watermelons
[11] = tested on: bacterial wilt in tobacco; experiment: whole plant or invertebrate; conditions: Nicotiana tabacum, read-out: efficacy against bacterial wilt in tobacco
[12] = tested on: pathogenic bacteria causing black shank in potatoes; experiment: In vitro bactericidal activity, black shank in potatoes; format: cell-based; conditions: read-out: inhibitory rate; for inhibition at 1 ppm: dosage 1 ppm; for inhibition at 5 ppm: dosage 5 ppm
[13] = tested on: cucumber seedlings; experiment: Safety for plant growth after application; format: in vivo; conditions: dosage 200 ppm
In short: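 Read-outs are chlorophyll content, leaf area and the rate of increase in plant height, all measured on cucumber seedlings kept in pots indoors after application.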

[14] = tested on: pathogenic bacteria causing bacterial angular leaf spot in cucumbers; experiment: In vitro bactericidal activity, bacterial angular leaf spot in cucumbers; format: cell-based, pseudomonas; conditions: read-out: inhibitory rate; for inhibition at 1 ppm: dosage 1 ppm; for inhibition at 5 ppm: dosage 5 ppm
[15] = tested on: stem rot in sweet potatoes; experiment: whole plant or invertebrate; conditions: read-out: efficacy against stem rot in sweet potatoes
[16] = tested on: pathogenic bacteria causing stem rot in sweet potatoes; experiment: In vitro bactericidal activity, stem rot in sweet potatoes; format: cell-based, dikia; conditions: read-out: inhibitory rate; for inhibition at 1 ppm: dosage 1 ppm; for inhibition at 5 ppm: dosage 5 ppm
[17] = tested on: soft rot in Chinese cabbages; experiment: whole plant or invertebrate; conditions: 48 h, read-out: efficacy against soft rot in Chinese cabbages

Compound	inhibition at 1 ppm [1] [%]	inhibition at 5 ppm [1] [%]	inhibition at 1 ppm [2] [%]	inhibition at 5 ppm [2] [%]	inhibition at 1 ppm [3] [%]	inhibition at 5 ppm [3] [%]	inhibition at 1 ppm [4] [%]	inhibition at 5 ppm [4] [%]	pest or weed control at 5 ppm [5] [%]	pest or weed control at 10 ppm [5] [%]	pest or weed control at 5 ppm [6] [%]	pest or weed control at 10 ppm [6] [%]	Rate of chlorophyll content increase (%) [7] [%]	Rate of growth rate increase (%) [7] [%]	Rate of leaf area increase (%) [7] [%]	inhibition at 1 ppm [8] [%]	inhibition at 5 ppm [8] [%]	inhibition at 1 ppm [9] [%]	inhibition at 5 ppm [9] [%]	pest or weed control at 5 ppm [10] [%]	other results
CCN(CC)c1cc2c(cc1F)c(=O)c(C(=O)OCCO)cn2C1CC1 [Compound 419]	≥ 90	≥ 90	≥ 90	≥ 90	≥ 90	≥ 90	≥ 90	≥ 90	≥ 90	≥ 90	≥ 90	≥ 90	15	11	17	≥ 90	≥ 90	≥ 90	≥ 90	≥ 90	pest or weed control at 10 ppm [10]: ≥ 90%; pest or weed control at 5 ppm [11]: ≥ 90%; pest or weed control at 10 ppm [11]: ≥ 90%; inhibition at 1 ppm [12]: ≥ 90%; inhibition at 5 ppm [12]: ≥ 90%; safety for plant growth (discoloration, necrosis, wilt, malformation) [13]: safe for plant growth; inhibition at 1 ppm [14]: ≥ 90%; inhibition at 5 ppm [14]: ≥ 90%; pest or weed control at 5 ppm [15]: ≥ 90%; pest or weed control at 10 ppm [15]: ≥ 90%; inhibition at 1 ppm [16]: ≥ 90%; inhibition at 5 ppm [16]: ≥ 90%; pest or weed control at 5 ppm [17]: ≥ 90%; pest or weed control at 10 ppm [17]: ≥ 90%
COCCOC(=O)c1cn(C2CC2)c2cc(SCC(F)(F)F)c(F)cc2c1=O [Compound 390]	≥ 90	≥ 90	≥ 90	≥ 90	≥ 90	≥ 90	≥ 90	≥ 90	≥ 90	≥ 90	≥ 90	≥ 90	17	13	15	≥ 90	≥ 90	≥ 90	≥ 90	≥ 90	pest or weed control at 10 ppm [10]: ≥ 90%; pest or weed control at 5 ppm [11]: ≥ 90%; pest or weed control at 10 ppm [11]: ≥ 90%; inhibition at 1 ppm [12]: ≥ 90%; inhibition at 5 ppm [12]: ≥ 90%; safety for plant growth (discoloration, necrosis, wilt, malformation) [13]: safe for plant growth; inhibition at 1 ppm [14]: ≥ 90%; inhibition at 5 ppm [14]: ≥ 90%; pest or weed control at 5 ppm [15]: ≥ 90%; pest or weed control at 10 ppm [15]: ≥ 90%; inhibition at 1 ppm [16]: ≥ 90%; inhibition at 5 ppm [16]: ≥ 90%; pest or weed control at 5 ppm [17]: ≥ 90%; pest or weed control at 10 ppm [17]: ≥ 90%
CCSc1cc2c(cc1F)c(=O)c(C(=O)OCCO)cn2C1CC1 [Compound 372]	≥ 90	≥ 90	≥ 90	≥ 90	≥ 90	≥ 90	≥ 90	≥ 90	≥ 90	≥ 90	≥ 90	≥ 90	11	8	10	≥ 90	≥ 90	≥ 90	≥ 90	≥ 90	pest or weed control at 10 ppm [10]: ≥ 90%; pest or weed control at 5 ppm [11]: ≥ 90%; pest or weed control at 10 ppm [11]: ≥ 90%; inhibition at 1 ppm [12]: ≥ 90%; inhibition at 5 ppm [12]: ≥ 90%; safety for plant growth (discoloration, necrosis, wilt, malformation) [13]: safe for plant growth; inhibition at 1 ppm [14]: ≥ 90%; inhibition at 5 ppm [14]: ≥ 90%; pest or weed control at 5 ppm [15]: ≥ 90%; pest or weed control at 10 ppm [15]: ≥ 90%; inhibition at 1 ppm [16]: ≥ 90%; inhibition at 5 ppm [16]: ≥ 90%; pest or weed control at 5 ppm [17]: ≥ 90%; pest or weed control at 10 ppm [17]: ≥ 90%
COCCOC(=O)c1cn(C2CC2)c2cc(OCC(F)(F)F)ccc2c1=O [Compound 364]	≥ 80	≥ 90	≥ 80	≥ 90	≥ 80	≥ 90	≥ 80	≥ 90	≥ 80	≥ 90	≥ 80	≥ 90	12	7	9	≥ 80	≥ 90	≥ 80	≥ 90	≥ 90	pest or weed control at 10 ppm [10]: ≥ 90%; pest or weed control at 5 ppm [11]: ≥ 90%; pest or weed control at 10 ppm [11]: ≥ 90%; inhibition at 1 ppm [12]: ≥ 80%; inhibition at 5 ppm [12]: ≥ 90%; safety for plant growth (discoloration, necrosis, wilt, malformation) [13]: safe for plant growth; inhibition at 1 ppm [14]: ≥ 80%; inhibition at 5 ppm [14]: ≥ 90%; pest or weed control at 5 ppm [15]: ≥ 90%; pest or weed control at 10 ppm [15]: ≥ 90%; inhibition at 1 ppm [16]: ≥ 80%; inhibition at 5 ppm [16]: ≥ 90%; pest or weed control at 5 ppm [17]: ≥ 80%; pest or weed control at 10 ppm [17]: ≥ 90%
